In US12532886B2, “Method of killing microbes using C3-C5 n-alkyl-gamma-butyrolactams and antimicrobial compositions containing same” (Virox Technologies Inc., priority 2018, dated 2026):

Tested on: M. smegmatis
Test: ASTM E2197-02 test method, without soil load, against mycobacteria
Type: cell-based
Experimental: Solutions A, B and AA were prepared to test the antimicrobial activity of N-alkyl-gamma-butyrolactam, specifically N-butyl-gamma-butyrolactam and N-octyl-gamma-butyrolactam. These solutions were tested using the ASTM E2197-02 test method (5-minute contact time or 75 second contact time) without soil load, against hard-to-kill mycobacteria (M. smegmatis).
Solution B was also tested using ASTM E2197-02 test method (75 second contact time), without soil load, against mycobacteria (M. smegmatis) and achieved a log10 reduction of 0.11 (shown in the last row of Table 1.0).
Additional solutions were prepared to assess the antimicrobial activity of N-alkyl-gamma-butyrolactam, specifically N-butyl-gamma-butyrolactam, when combined with other antimicrobial agents in aqueous solution. These solutions are summarized in Tables 2.0, 2.1, and 2.2 below and tested using ASTM E2197-02 test method (75 second contact time), without soil load, against mycobacteria (M. smegmatis).

Row | Structure (SMILES) | Antimicrobial activity against M. smegmatis, 5 minutes contact time
1 | CCCCN1CCCC1=O [N-butyl-gamma-butyrolactam] | possesses antimicrobial activity
2 | CCCCCCCCN1CCCC1=O [N-octyl-gamma-butyrolactam] | no antimicrobial activity
